What was measured:
[1] = tested on: susceptible wild type (HA452) line; test: Greenhouse re-assessment of saflufenacil tolerance, wild type reference (Example 3); assay type: in vivo, Helianthus annuus
From the text: (§1) As it is not uncommon that in forward field mutant screening for herbicide tolerance ‘false’ tolerant plants are selected, the field candidates were reassessed in the greenhouse. Field harvested seeds of the mutant lead LIH16358 were planted in the greenhouse on Nov. 26, 2019, in Limburgerhof, Germany. The greenhouse trial had the objective to verify if the progeny of mutant lead LIH16358 would survive treatment with saflufenacil. Seeds of the susceptible wild type (HA452) line were planted in the same greenhouse trial as the susceptible reference. Saflufenacil was sprayed at 2.5 g a.i./ha on Dec. 10, 2019. The 2.5 g a.i./ha of saflufenacil corresponds to 12.5 g a.i./ha in field conditions. The final phytotoxicity evaluation in the treated plants was done on Dec. 24, 2019.
(§2) The tolerant progeny individuals of mutant lead LIH16358 produced seeds, which were planted in a follow up greenhouse trial on May 19, 2020. The plants were sprayed with 2.0 g a.i./ha of saflufenacil on Jun. 3, 2020.

[2] = tested on: wild type (WT) sunflower line (RHA473); test: Greenhouse PPO cross-tolerance trial, wild type (Example 7); assay type: in vivo
Experimental: (§3) In August of 2021, a greenhouse herbicide trial was carried out in Zwijnaarde, Belgium. A homozygous PPO2_F4201 sunflower seed lot (HA452-M), and a wild type (WT) sunflower line (RHA473) were used in the greenhouse trial. Sixteen homozygous PPO2_F4201 mutant plants and six WT plants were sown and treated with each herbicide. […]

PPO2_F383I mutant lines = test: Advanced field trial with saflufenacil, Utrera 2021 (Example 4); assay type: in vivo, Helianthus annuus
Experimental: M6 seed of eleven lines all originating from the nine plants carrying the PPO2_F383I mutation but with a different pedigree were assessed in an advanced field trial. The advanced field trial was manually planted in Utrera, Spain, on May 3, 2021. One row per mutant entry per plot was considered, and thirty-two seeds were planted per mutant entry per row per plot. Saflufenacil was applied in four increasing rates (0×: 0 g a.i/ha, 0.5×=12.5 g a.i./ha; 1×=25 g a.i./ha and 2×=50 g a.i./ha) when plants were at the BBCH12-14 growth stage. Saflufenacil application took place on Jul. 26, 2021. The field trial design was a strip-block design with four replications.
Phytotoxicity evaluations were done at 2, 5, 12, 19 and 26 days after treatment (DAT) with saflufenacil. As discussed previously, phytotoxicity of the mutant entries and wild type control were scored in each of the evaluation days after saflufenacil treatment. Eleven mutant lines were tested. The field tested one mutant line per row 32 seeds per row, for each saflufenacil rate treatment and replication, this means every plot was made of a single row, so the plot was the row for each mutant line. The phytotoxicity % score was given for each row in comparison to the untreated row of the same mutant line (control), meaning all 11 mutant lines were assessed for phytotoxicity % in all treatments and replications. Phytotoxicity was visually recorded at each evaluation time after saflufenacil application on a per plot basis based on the rating scale table (below).
To better reflect the tolerance of surviving plants, data were expressed in percent herbicide tolerance efficacy by using the formula below:
where: • 0% means no tolerance • 100% means full tolerance

[3] = tested on: PPO2_F383I mutant PPO2 enzyme; test: In vitro PPO inhibition assay, mutant enzyme (Example 5); assay type: biochemical, sunflower; conditions: PPO2_F383I versus wild type IC50
From the text: (§4) To test whether the PPO2_F383I is the main cause of the observed saflufenacil tolerance, we used an in vitro to compare the inhibition potency (IC50) of different PPO inhibiting herbicides between wild-type and mutant PPO2 enzyme. The in vitro assay assesses the oxidation of protoporphyrinogen IX to protoporphyrin IX, catalyzed by the PPO enzyme. Both the wild type and mutant PPO2 proteins were heterologously expressed in E. coli and purified. Purified protein was mixed with different concentrations of the herbicide ranging from 10^−5M to 10^−11M and protein activity was measured. Protein activity is defined as the fluorescence per minute that the reaction generates. In the reaction, the purified PPO enzyme is mixed with substrate protoporphyrinogen IX and the herbicide. The product of the reaction is excited at 405 nm and produces a fluorescence at 630 nm which we detect. IC50 (in Mol) and tolerance factor were calculated.

[4] = molecular target: PPO2_F383I mutant PPO2 enzyme (Helianthus annuus, UniProt A0A251TWC2, F383I); test: as above; assay type: biochemical, sunflower
From the text: as §4

[5] = tested on: progeny of mutant lead LIH16358 (PPO2_F383I); test: Greenhouse re-assessment of saflufenacil tolerance, mutant progeny (Example 3); assay type: in vivo, Helianthus annuus
From the text: as §1, §2

[6] = tested on: PPO2_F420I Mutant sunflower; test: Field PPO cross-tolerance trial, mutant (Example 8); assay type: in vivo; conditions: for Phytotoxicity (%) PPO2_F420I Mutant 6DAT / Phytotoxicity (%) PPO2_F420I Mutant 11DAT / Phytotoxicity (%) PPO2_F420I Mutant 14DAT: MSO 1% v/v
Experimental: (§5) A field trial was carried out to assess PPO cross-tolerance in non-introgressed, selfed, homozygous PPO2_F4201 mutants, as well as to assess tolerance differences using increasing rates of herbicides listed in Table 5. The field trial was done in Utrera, Spain, in September of 2021.
(§6) Herbicide treatments (Table 5) were applied in the field when plants had the BBCH12-14 growth stage (2-4 leaves). The field trial design was the randomized complete block design, and 1 replication was considered due to limitation in seed availability. Two entries were used in the field trial, the WT line and the PPO2_F4201 mutant. The experimental plot consisted of 1 entry per plot and 1 row per entry.
(§7) Phytotoxicity of mutant and WT entries was recorded over time, at 6, 11 and 14 DAT, where 100% phytotoxicity indicates complete control (dead plants), and 0% phytotoxicity indicates no control or alive plants without any herbicide injury.

[7] = tested on: homozygous PPO2_F4201 sunflower (HA452-M); test: Greenhouse PPO cross-tolerance trial, mutant (Example 7); assay type: in vivo; conditions: for recovery of PPO2_F4201 plants after early phytotoxicity at 4 DAT: 10 DAT; for survival of PPO2_F4201 plants: all rates tested, MSO 1% v/v
Experimental: as §3

wild-type PPO2 enzyme = wild-type PPO2 enzyme (Helianthus annuus, UniProt A0A251TWC2); test: In vitro PPO inhibition assay, wild type enzyme (Example 5); assay type: biochemical, sunflower
From the text: as §4

[8] = tested on: conventional sunflowers (Edison, ES Coloris Clearfield, inbred line HA452); test: Field trials of sunflower sensitivity to saflufenacil (Example 1); assay type: in vivo, Helianthus annuus
Experimental: Research was conducted to evaluate the sensitivity of sunflower to the herbicide comprising the active ingredient (AI) saflufenacil (Trade name: Kixor™). The herbicide was applied in 2 field trials at different rates ranging from 0.91 g to 14 g a.i./ha (with 0.5-1% MSO-methylated seed oil-adjuvant) to 2 commercial sunflower varieties [a) a conventional (non-herbicide tolerant) sunflower (“Edison”) which is a linoleic oil-type sunflower, and b) a herbicide tolerant sunflower (“ES Coloris Clearfield which is a linoleic oil-type sunflower] and a public inbred line HA452, from the USDA (United States Department of Agriculture) National Plant Germplasm System (NPGS), deposited under Accession No. PI 642771. The treated plants were at the 2-to-4 leaf-stage (BBCH12-14). Trials were set up in a randomized complete block design with 3 replications and rated for herbicide phytotoxicity (percentage damage) 3, 7, 10 and 14 days after treatment (see also Example 4 for more details). Herbicide phytotoxicity ranges from 0% phytotoxicity (full tolerance) to 100% phytotoxicity (full susceptibility or absence of tolerance).
Full control of all sunflower materials was even observed at the first phytotoxicity evaluation time point, 3 days after treatment (DAT) with saflufenacil (results not shown).
The second field trial (trial 2) compared the adjuvant MSO at two concentrations: 1% v/v, concentration used by the farmer and 0.5%, half the concentration (FIG. 2). With the MSO concentration of 0.5% v/v, which lowers the general herbicidal efficacy of saflufenacil in weeds, control of all sunflower materials was around 80% at the lowest rate of saflufenacil (0.91 g a.i./ha) and 100% at 1.75 g a.i./ha and higher (FIG. 2).

[9] = tested on: Wild Type (WT) sunflower line; test: Field PPO cross-tolerance trial, wild type (Example 8); assay type: in vivo; conditions: for Phytotoxicity (%) Wild Type (WT) 6DAT / Phytotoxicity (%) Wild Type (WT) 11DAT / Phytotoxicity (%) Wild Type (WT) 14DAT: MSO 1% v/v
Experimental: as §5, §6, §7

Sequence of PPO2_F383I mutant PPO2 enzyme (Helianthus annuus, UniProt A0A251TWC2, F383I) (A0A251TWC2 entry or part of it F383I): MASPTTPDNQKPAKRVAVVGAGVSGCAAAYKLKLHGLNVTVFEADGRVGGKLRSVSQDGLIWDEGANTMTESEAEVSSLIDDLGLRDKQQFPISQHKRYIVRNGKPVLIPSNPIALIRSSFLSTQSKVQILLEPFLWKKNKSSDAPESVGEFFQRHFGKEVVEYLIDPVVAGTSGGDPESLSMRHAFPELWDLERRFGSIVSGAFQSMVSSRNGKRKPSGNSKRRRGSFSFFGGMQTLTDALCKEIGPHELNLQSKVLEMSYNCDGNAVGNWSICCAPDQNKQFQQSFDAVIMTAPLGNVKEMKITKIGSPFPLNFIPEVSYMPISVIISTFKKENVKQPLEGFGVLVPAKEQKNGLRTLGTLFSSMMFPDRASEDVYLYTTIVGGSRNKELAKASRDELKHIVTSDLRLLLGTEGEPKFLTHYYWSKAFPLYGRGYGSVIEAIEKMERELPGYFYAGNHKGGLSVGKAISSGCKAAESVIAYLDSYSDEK
Sequence of wild-type PPO2 enzyme (A0A251TWC2 entry or part of it): as the sequence (A0A251TWC2 entry or part of it F383I) above, with I383F counted along it

## CC(C)N(C)S(=O)(=O)NC(=O)c1cc(-n2c(=O)cc(C(F)(F)F)n(C)c2=O)c(F)cc1Cl [Saflufenacil]
[1]; 2.0 g a.i./ha, 14 DAT
  phytotoxicity: 100%
[1]; 2.5 g a.i./ha
  control of wild type reference plants: completely controlled and dead
[2]; dose as low as 1.25 g/ha, greenhouse, MSO 1% v/v
  kill of WT plants: all killed
PPO2_F383I mutant lines; 50 g a.i./ha in the field
  survival and seed production: survive and produce seeds
PPO2_F383I mutant lines; across entries and saflufenacil rates
  impact on days to 50% flowering versus untreated: ≤ 5 days
PPO2_F383I mutant lines; all eleven mutant lines, all rates (12.5, 25, 50 g a.i./ha)
  tolerance efficacy (%): high tolerance efficacy
PPO2_F383I mutant lines; all rates including 2x (50 g a.i./ha)
  plant recovery: start to significantly recover at 19 DAT
PPO2_F383I mutant lines; eleven mutant entries, field, 12.5, 25 and 50 g a.i./ha
  phytotoxicity at peak, compared to untreated controls: higher than 15%
PPO2_F383I mutant lines; when flowering was completed, 73 DAT
  plant height, treated versus untreated: untreated plants showed a greater plant height compared to treated plants
[3]
  Tolerance factor: 2897
[4]; IC50 for PPO2_F383I
  IC50: 4.36 µM
[4]; PPO2_F383I IC50, purified enzyme expressed in E. coli, herbicide 10^-5 M to 10^-11 M
  IC50: 4.23 µM
[5]; 2.0 g a.i./ha, second generation progenies, 14 DAT
  phytotoxicity of individuals: ≥ 25%
[5]; 2.5 g a.i./ha, first generation progeny
  survival after treatment: survived saflufenacil treatment
[6]; 3.125 g a.i./ha
  Phytotoxicity (%) PPO2_F420I Mutant 6DAT: 40%
  Phytotoxicity (%) PPO2_F420I Mutant 11DAT: 35%
  Phytotoxicity (%) PPO2_F420I Mutant 14DAT: 35%
[6]; 6.25 g a.i./ha
  Phytotoxicity (%) PPO2_F420I Mutant 6DAT: 45%
  Phytotoxicity (%) PPO2_F420I Mutant 11DAT: 40%
  Phytotoxicity (%) PPO2_F420I Mutant 14DAT: 40%
[6]; all rates of saflufenacil
  survival of the PPO2_F4201 mutant: survives
[6]; at 11 and 14 DAT
  maximum phytotoxicity in the PPO2_F4201 mutants: 40%
[7]
  recovery of PPO2_F4201 plants after early phytotoxicity at 4 DAT: consistent survival and recovery
  survival of PPO2_F4201 plants: survived at all rates
wild-type PPO2 enzyme
  IC50: 0.00146 µM
[8]; 0.91 g a.i./ha, 1% v/v MSO
  phytotoxicity: 100%
[8]; 1% MSO v/v, all applied rates (0.91 to 14 g a.i./ha), field trial 2
  control of sunflower materials: total control
[8]; 1.75 g a.i./ha and higher, MSO 0.5% v/v, field trial 2
  control of all sunflower materials: 100%
[8]; field trial 1, 3 days after treatment
  control of all sunflower materials: Full control
[8]; field trial 1, lowest saflufenacil rate, after 14 days
  control of all three sunflower materials: completed controlled
[9]; 3.125 g a.i./ha
  Phytotoxicity (%) Wild Type (WT) 6DAT: 100%
  Phytotoxicity (%) Wild Type (WT) 11DAT: 100%
  Phytotoxicity (%) Wild Type (WT) 14DAT: 100%
[9]; 6.25 g a.i./ha
  Phytotoxicity (%) Wild Type (WT) 6DAT: 100%
  Phytotoxicity (%) Wild Type (WT) 11DAT: 100%
  Phytotoxicity (%) Wild Type (WT) 14DAT: 100%
[9]; saflufenacil 3.125 and 6.25 g a.i./ha
  phytotoxicity in the WT background: 100%

## C#CCN1C(=O)COc2cc(F)c(N3C(=O)C4=C(CCCC4)C3=O)cc21 [Flumioxazin]
[2]; 4 g/ha, 10 DAT
  surviving WT plants: one
[2]; dose as low as 4 g/ha, greenhouse
  phytotoxicity score of WT plants: 90-100%
[6]; 45 g a.i./ha
  Phytotoxicity (%) PPO2_F420I Mutant 6DAT: 20%
  Phytotoxicity (%) PPO2_F420I Mutant 11DAT: 20%
  Phytotoxicity (%) PPO2_F420I Mutant 14DAT: 10%
[6]; 55 g a.i./ha
  Phytotoxicity (%) PPO2_F420I Mutant 6DAT: 30%
  Phytotoxicity (%) PPO2_F420I Mutant 11DAT: 25%
  Phytotoxicity (%) PPO2_F420I Mutant 14DAT: 15%
[6]; 65 g a.i./ha
  Phytotoxicity (%) PPO2_F420I Mutant 6DAT: 30%
  Phytotoxicity (%) PPO2_F420I Mutant 11DAT: 30%
  Phytotoxicity (%) PPO2_F420I Mutant 14DAT: 20%
[7]
  recovery of PPO2_F4201 plants after early phytotoxicity at 4 DAT: consistent survival and recovery
  survival of PPO2_F4201 plants: survived at all rates
[9]; 45 g a.i./ha
  Phytotoxicity (%) Wild Type (WT) 6DAT: 80%
  Phytotoxicity (%) Wild Type (WT) 11DAT: 75%
  Phytotoxicity (%) Wild Type (WT) 14DAT: 75%
[9]; 55 g a.i./ha
  Phytotoxicity (%) Wild Type (WT) 6DAT: 80%
  Phytotoxicity (%) Wild Type (WT) 11DAT: 70%
  Phytotoxicity (%) Wild Type (WT) 14DAT: 70%
[9]; 65 g a.i./ha
  Phytotoxicity (%) Wild Type (WT) 6DAT: 85%
  Phytotoxicity (%) Wild Type (WT) 11DAT: 80%
  Phytotoxicity (%) Wild Type (WT) 14DAT: 80%
[9]; across flumioxazin rates (45, 55, 65 g a.i./ha)
  WT control level: 75-80%
